Results reported in PMC12586182 (Frontiers in Oncology, 2025).

Columns and labels:
Assay in all cases: Kinase panel profiling at 1 µmol/L (mobility shift assay, Carna)
Format in all cases: biochemical
Conditions in all cases: 1 µmol/L of BTK inhibitor
CK1α = target: T1, CK1α (Homo sapiens, UniProt P48729)
T1 construct: purchased Carna Biosciences

PKD3 = target: T2, PKD3 (Homo sapiens, UniProt O94806)
T2 construct: purchased Carna Biosciences
T2 sequence (O94806 1-890): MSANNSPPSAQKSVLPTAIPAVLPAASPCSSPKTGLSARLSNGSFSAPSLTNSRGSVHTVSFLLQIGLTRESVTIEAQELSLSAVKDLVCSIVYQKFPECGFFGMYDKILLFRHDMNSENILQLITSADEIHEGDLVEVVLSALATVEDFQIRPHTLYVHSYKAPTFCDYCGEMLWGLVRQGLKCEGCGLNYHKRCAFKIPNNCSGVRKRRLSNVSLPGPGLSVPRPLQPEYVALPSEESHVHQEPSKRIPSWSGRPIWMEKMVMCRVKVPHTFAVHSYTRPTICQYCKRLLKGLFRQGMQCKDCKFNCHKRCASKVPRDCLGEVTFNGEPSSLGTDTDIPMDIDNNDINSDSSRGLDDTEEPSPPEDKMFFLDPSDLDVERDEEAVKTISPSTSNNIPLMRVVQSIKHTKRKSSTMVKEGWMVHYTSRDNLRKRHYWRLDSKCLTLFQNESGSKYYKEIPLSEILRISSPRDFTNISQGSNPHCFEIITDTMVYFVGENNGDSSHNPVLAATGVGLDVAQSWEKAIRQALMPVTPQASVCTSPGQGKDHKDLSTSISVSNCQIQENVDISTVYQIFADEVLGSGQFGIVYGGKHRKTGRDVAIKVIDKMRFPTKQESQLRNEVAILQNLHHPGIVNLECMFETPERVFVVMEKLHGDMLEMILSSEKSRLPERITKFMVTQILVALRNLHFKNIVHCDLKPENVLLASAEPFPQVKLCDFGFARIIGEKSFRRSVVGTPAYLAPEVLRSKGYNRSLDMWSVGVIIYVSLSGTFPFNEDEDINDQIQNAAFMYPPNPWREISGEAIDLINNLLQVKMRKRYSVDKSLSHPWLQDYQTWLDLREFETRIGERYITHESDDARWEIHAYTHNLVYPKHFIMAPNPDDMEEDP

MARK4 = target: T3, MARK4 (Homo sapiens, UniProt Q96L34)
T3 construct: purchased Carna Biosciences
T3 sequence (Q96L34 1-752): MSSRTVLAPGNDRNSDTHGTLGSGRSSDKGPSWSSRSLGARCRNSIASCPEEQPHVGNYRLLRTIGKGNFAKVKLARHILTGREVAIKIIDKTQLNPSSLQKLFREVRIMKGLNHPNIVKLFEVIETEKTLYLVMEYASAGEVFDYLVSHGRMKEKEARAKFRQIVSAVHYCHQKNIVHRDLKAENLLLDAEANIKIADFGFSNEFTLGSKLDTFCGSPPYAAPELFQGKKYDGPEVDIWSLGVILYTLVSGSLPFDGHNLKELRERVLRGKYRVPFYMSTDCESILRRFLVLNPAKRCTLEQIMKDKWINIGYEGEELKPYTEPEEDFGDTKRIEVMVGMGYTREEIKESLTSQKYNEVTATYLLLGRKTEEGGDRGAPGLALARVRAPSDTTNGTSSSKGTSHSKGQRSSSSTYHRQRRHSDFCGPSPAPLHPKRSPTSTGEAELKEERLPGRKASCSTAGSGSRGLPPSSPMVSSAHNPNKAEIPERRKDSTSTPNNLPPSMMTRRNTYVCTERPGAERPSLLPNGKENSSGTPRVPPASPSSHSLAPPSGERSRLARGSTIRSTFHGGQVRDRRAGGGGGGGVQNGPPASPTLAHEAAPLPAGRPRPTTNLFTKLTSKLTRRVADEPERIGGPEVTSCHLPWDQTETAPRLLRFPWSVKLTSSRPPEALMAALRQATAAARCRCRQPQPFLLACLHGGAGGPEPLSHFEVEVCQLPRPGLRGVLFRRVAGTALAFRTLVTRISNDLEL

CK1γ3 = target: T4, CK1γ3 (Homo sapiens, UniProt Q9Y6M4)
T4 construct: purchased Carna Biosciences
T4 sequence (Q9Y6M4 whole entry): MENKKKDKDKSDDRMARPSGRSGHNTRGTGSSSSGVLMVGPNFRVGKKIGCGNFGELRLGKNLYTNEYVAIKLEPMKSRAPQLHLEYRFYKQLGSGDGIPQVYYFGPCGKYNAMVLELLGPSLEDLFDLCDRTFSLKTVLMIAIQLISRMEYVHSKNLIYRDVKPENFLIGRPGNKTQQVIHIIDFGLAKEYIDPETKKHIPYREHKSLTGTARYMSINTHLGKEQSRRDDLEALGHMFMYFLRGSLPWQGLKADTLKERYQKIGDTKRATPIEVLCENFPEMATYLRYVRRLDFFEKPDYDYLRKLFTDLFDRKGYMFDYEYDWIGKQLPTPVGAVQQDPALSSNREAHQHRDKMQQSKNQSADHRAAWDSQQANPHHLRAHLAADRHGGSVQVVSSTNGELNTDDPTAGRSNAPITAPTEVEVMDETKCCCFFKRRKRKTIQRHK

LYNa = target: T5, LYNa (Homo sapiens, UniProt P07948)
T5 construct: purchased Carna Biosciences
T5 sequence (P07948 whole entry): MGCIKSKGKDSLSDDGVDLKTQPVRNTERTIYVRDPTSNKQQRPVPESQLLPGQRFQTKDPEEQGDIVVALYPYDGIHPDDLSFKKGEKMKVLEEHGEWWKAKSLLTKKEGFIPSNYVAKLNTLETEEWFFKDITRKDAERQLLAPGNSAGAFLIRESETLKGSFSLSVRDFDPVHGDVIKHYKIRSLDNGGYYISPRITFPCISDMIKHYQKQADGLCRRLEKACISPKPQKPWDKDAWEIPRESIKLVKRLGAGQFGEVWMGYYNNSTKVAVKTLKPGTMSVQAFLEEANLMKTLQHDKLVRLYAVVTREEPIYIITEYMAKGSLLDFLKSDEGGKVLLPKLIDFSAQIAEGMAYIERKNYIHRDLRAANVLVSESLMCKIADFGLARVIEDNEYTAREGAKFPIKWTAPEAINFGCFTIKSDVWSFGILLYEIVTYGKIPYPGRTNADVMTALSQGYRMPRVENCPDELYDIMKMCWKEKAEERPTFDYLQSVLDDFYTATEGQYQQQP

MAPKAPK5 = target: T6, MAPKAPK5 (Homo sapiens, UniProt Q8IW41)
T6 construct: purchased Carna Biosciences
T6 sequence (Q8IW41 1-473): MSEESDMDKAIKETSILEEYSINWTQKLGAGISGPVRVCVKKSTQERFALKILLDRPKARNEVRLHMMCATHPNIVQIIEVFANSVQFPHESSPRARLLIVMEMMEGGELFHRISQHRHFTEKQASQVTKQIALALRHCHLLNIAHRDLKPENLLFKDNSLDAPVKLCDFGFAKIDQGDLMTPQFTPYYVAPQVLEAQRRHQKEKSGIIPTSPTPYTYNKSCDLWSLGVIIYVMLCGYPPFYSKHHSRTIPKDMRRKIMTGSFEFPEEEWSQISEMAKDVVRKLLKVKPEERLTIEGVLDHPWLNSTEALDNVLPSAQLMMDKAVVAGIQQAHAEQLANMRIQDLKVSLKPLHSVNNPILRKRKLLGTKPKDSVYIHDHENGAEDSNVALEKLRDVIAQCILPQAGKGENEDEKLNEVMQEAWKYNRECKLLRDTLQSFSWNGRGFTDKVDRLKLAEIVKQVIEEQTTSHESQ

PRKX = target: T7, PRKX (Homo sapiens, UniProt P51817)
T7 construct: purchased Carna Biosciences
T7 sequence (P51817 1-358): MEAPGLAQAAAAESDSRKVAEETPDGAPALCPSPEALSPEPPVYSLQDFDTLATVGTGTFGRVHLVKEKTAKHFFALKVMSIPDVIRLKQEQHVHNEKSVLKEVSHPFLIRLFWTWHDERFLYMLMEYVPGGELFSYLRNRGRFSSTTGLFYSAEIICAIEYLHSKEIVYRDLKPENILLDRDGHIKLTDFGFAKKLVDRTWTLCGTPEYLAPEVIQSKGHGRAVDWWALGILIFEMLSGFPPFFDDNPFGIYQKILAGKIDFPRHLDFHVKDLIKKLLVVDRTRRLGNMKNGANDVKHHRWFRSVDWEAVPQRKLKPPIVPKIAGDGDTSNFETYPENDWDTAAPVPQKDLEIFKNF

T1 sequence (P48729 whole entry): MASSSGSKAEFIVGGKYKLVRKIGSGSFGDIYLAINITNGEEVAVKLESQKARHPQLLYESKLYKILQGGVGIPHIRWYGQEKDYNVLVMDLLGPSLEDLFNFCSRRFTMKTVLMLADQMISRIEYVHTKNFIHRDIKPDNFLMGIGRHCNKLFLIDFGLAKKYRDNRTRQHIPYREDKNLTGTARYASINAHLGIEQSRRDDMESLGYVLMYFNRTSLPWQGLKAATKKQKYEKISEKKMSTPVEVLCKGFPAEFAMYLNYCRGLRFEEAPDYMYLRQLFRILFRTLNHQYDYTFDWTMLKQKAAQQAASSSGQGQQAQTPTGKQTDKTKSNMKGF

## CC#CC(=O)N1CCC[C@H]1c1nc(-c2ccc(C(=O)Nc3ccccn3)cc2)c2c(N)nccn12 [acalabrutinib]
CK1α
  Percentage inhibition of kinase enzyme activity: 10.47%
PKD3
  Percentage inhibition of kinase enzyme activity: -2.07%
MARK4
  Percentage inhibition of kinase enzyme activity: -15.24%
CK1γ3
  Percentage inhibition of kinase enzyme activity: -14.72%
LYNa
  Percentage inhibition of kinase enzyme activity: 1.93%
MAPKAPK5
  Percentage inhibition of kinase enzyme activity: -1.87%
PRKX
  Percentage inhibition of kinase enzyme activity: -4.59%

## C=CC(=O)N1CCC[C@@H](n2nc(-c3ccc(Oc4ccccc4)cc3)c3c(N)ncnc32)C1 [ibrutinib]
CK1α
  Percentage inhibition of kinase enzyme activity: -1.93%
PKD3
  Percentage inhibition of kinase enzyme activity: 5.48%
MARK4
  Percentage inhibition of kinase enzyme activity: -14.26%
CK1γ3
  Percentage inhibition of kinase enzyme activity: 3.83%
LYNa
  Percentage inhibition of kinase enzyme activity: 98.69%
MAPKAPK5
  Percentage inhibition of kinase enzyme activity: -2.44%
PRKX
  Percentage inhibition of kinase enzyme activity: 0.66%

## O=C(c1ccc(Oc2ccccc2)cc1Cl)c1c[nH]c2ncnc(N[C@@H]3CC[C@@H](CO)OC3)c12 [nemtabrutinib]
CK1α
  Percentage inhibition of kinase enzyme activity: 33.46%
PKD3
  Percentage inhibition of kinase enzyme activity: 16.29%
MARK4
  Percentage inhibition of kinase enzyme activity: 20.90%
CK1γ3
  Percentage inhibition of kinase enzyme activity: 3.75%
LYNa
  Percentage inhibition of kinase enzyme activity: 100.76%
MAPKAPK5
  Percentage inhibition of kinase enzyme activity: -2.46%
PRKX
  Percentage inhibition of kinase enzyme activity: 1.65%

## COc1ccc(F)cc1C(=O)NCc1ccc(-c2nn([C@@H](C)C(F)(F)F)c(N)c2C(N)=O)cc1 [pirtobrutinib]
CK1α
  Percentage inhibition of kinase enzyme activity: 9.63%
PKD3
  Percentage inhibition of kinase enzyme activity: 2.18%
MARK4
  Percentage inhibition of kinase enzyme activity: -2.93%
CK1γ3
  Percentage inhibition of kinase enzyme activity: -0.93%
LYNa
  Percentage inhibition of kinase enzyme activity: 46.22%
MAPKAPK5
  Percentage inhibition of kinase enzyme activity: -1.10%
PRKX
  Percentage inhibition of kinase enzyme activity: 9.51%
